In EP2931723B1, “NEW BICYCLIC COMPOUNDS AND THEIR USE AS ANTIBACTERIAL AGENTS AND -LACTAMASE INHIBITORS” (Fedora Pharmaceuticals Inc., priority 2012, dated 2014):
Where two headings read alike, the source gives them in different places.

Assays:
Assay type in all cases: cell-based
K. pneumo JMI 4088 [1] = assay: MIC, antibacterial and synergistic activity; details: K. pneumo JMI 4088 (KPC-3 (Cpase)); substance alone
K. pneumo JMI 2674 [2] = assay: MIC, antibacterial and synergistic activity; details: K. pneumo JMI 2674 (CTX-M15 (ESBL)); substance alone
Protocol: (§1) In the Tables 10 - 12, compounds herein disclosed were tested in combination with various antibiotics against metallo β-lactamase producing bacteria. Table 3: Synergy of the inhibitor Ex. 1 (4 µg/mL) in combination with antibiotics

E. coli JMI 10768 = assay: MIC, antibacterial and synergistic activity; details: Escherichia coli, JMI10768; E. coli JMI 10768 (CTX-M15 (Weak ESBL)); substance alone
Protocol: as §1

K. pneumo JMI 2699 = assay: MIC, antibacterial and synergistic activity; details: K. pneumo JMI 2699 (VIM-1, CTX-M3), substance alone
Protocol: as §1

K. pneumo JMI 4088 [3] = assay: MIC, antibacterial and synergistic activity; details: K. pneumo JMI 4088 (KPC-3 (Cpase)); substance alone; remark: listed apart in the source
Protocol: as §1

E. coli JMI 10767 = assay: MIC, antibacterial and synergistic activity; details: Escherichia coli, JMI10767; E. coli JMI 10767 (Wt); substance alone
P. aerug JMI 2686 [4] = assay: MIC, antibacterial and synergistic activity; details: P. aerug JMI 2686 (KPC-2 (Cpase)); substance alone
E. coli ATCC 25922 = assay: MIC, antibacterial and synergistic activity; details: Escherichia coli, ATCC25922; E. coli ATCC 25922 (Wt); substance alone
E.coli JMI 4103 = assay: MIC, antibacterial and synergistic activity; details: Escherichia coli, JMI4103; E.coli JMI 4103 (KPC-2, Tem-1, CMY-Type); substance alone
E. coli JMI 10770 = assay: MIC, antibacterial and synergistic activity; details: Escherichia coli, JMI10770; E. coli JMI 10770 (CTX-M15 (Hyper ESBL)); substance alone
K. pneumo JMI 2693 = assay: MIC, antibacterial and synergistic activity; details: K. pneumo JMI 2693 (NDM-1 (Cpase)); substance alone
Protocol: (§2) In the Tables 10 - 12, compounds herein disclosed were tested in combination with various antibiotics against metallo β-lactamase producing bacteria.

K. pneumo JMI 2697 = assay: MIC, antibacterial and synergistic activity; details: K. pneumo JMI 2697 (IMP-4 (Cpase)); substance alone
Protocol: as §2

E. coli JMI 2692 = assay: MIC, antibacterial and synergistic activity; details: Escherichia coli, JMI2692
Protocol: as §2

K. pneumo JMI 2674 [5] = assay: MIC, antibacterial and synergistic activity; details: K. pneumo JMI 2674 (CTX-M15 (ESBL)); substance alone; remark: listed apart in the source
[6] = system: metallo β-lactamase producing bacteria; assay: MIC in combination with various antibiotics against metallo β-lactamase producing bacteria (Tables 10-12); details: agent alone
Protocol: as §2

E. coli JMI 11103 = assay: MIC, antibacterial and synergistic activity; details: Escherichia coli, JMI11103, E. coli JMI 11103 (CTX-M15 (Intermediate ESBL)); substance alone
K. pneumo JMI 4106 = assay: MIC, antibacterial and synergistic activity; details: K. pneumo JMI 4106 (KPC-3, TEM-1, SHV-12, SHV-141), substance alone
E. coli JMI 4080 = assay: MIC, antibacterial and synergistic activity; details: Escherichia coli, JMI4080, E. coli JMI 4080 (Tem-10); substance alone
E. coli JMI 2665 = assay: MIC, antibacterial and synergistic activity; details: Escherichia coli
Protocol: as §1

E. coli JMI 2671 = assay: MIC, antibacterial and synergistic activity; details: Escherichia coli, JMI2671, E. coli JMI 2671 (VIM-19 (Cpase)); substance alone
Protocol: as §1

P. aerug JMI 2686 [7] = assay: MIC, antibacterial and synergistic activity; details: P. aerug JMI 2686 (KPC-2 (Cpase)); substance alone; remark: listed apart in the source
Protocol: as §1

K. pneumo JMI 2673 = assay: MIC, antibacterial and synergistic activity; details: K. pneumo JMI 2673 (CTX-M14 (ESBL)); substance alone
K.pneumo JMI 4109 = assay: MIC, antibacterial and synergistic activity; details: K.pneumo JMI 4109 (SHV-1, SHV-12); substance alone
E. cloacae JMI 36 = assay: MIC, antibacterial and synergistic activity; details: Enterobacter cloacae, JMI36
A. baumanii JMI 2659 = assay: MIC, antibacterial and synergistic activity; details: Acinetobacter baumannii, JMI2659
K. pneumo JMI 2681 = assay: MIC, antibacterial and synergistic activity
P. aerug JMI 149 = assay: MIC, antibacterial and synergistic activity
[8] = E. coli JMI 2692 (NDM-1, TEM-1, CTX-M-15), substance alone, read-out: MIC
[9] = Serratia marcescens, Isolate No 35, Enzyme IMP-4, unit assumed
[10] = Citrobacter freundii, Isolate No 49469, Enzyme NDM-1, unit assumed
[11] = Enterobacter aerogenes, Isolate No 8397, Enzyme VIM-1, unit assumed
[12] = Enterobacter aerogenes, Isolate No 47683, Enzyme VIM-12, unit assumed
[13] = Enterobacter cloacae, Isolate No 4, Enzyme VIM-6, unit assumed
[14] = Enterobacter cloacae, Isolate No 10, Enzyme IMP-26, unit assumed
[15] = Enterobacter cloacae, Isolate No 25, Enzyme IMP-4, unit assumed
[16] = Enterobacter cloacae, Isolate No 1068, Enzyme VIM-2, unit assumed
[17] = Enterobacter cloacae, Isolate No 1471, Enzyme VIM-1, unit assumed
[18] = Enterobacter cloacae, Isolate No 3686, Enzyme IMP-1, unit assumed
[19] = Enterobacter cloacae, Isolate No 53477, Enzyme NDM-1, unit assumed
[20] = Escherichia coli, Isolate No 17, Enzyme NDM-1, unit assumed
[21] = Escherichia coli, Isolate No 49, Enzyme NDM-1, unit assumed
[22] = Escherichia coli, Isolate No 53749, Enzyme NDM-1, unit assumed
[23] = Klebsiella oxytoca, Isolate No 24825, Enzyme IMP-26, unit assumed
[24] = Klebsiella oxytoca, Isolate No 31141, Enzyme VIM-23, unit assumed
[25] = Klebsiella pneumoniae, Isolate No 16, Enzyme VIM-5, unit assumed
[26] = Klebsiella pneumoniae, Isolate No 38, Enzyme NDM-1, unit assumed
[27] = Providencia stuartii, Isolate No 26582, Enzyme VIM-1, unit assumed
[28] = Serratia marcescens, Isolate No 36098, Enzyme IMP-19, unit assumed

For C[C@H]1[C@H](NC(=O)/C(=N\OC(C)(C)C(=O)O)c2csc(N)n2)C(=O)N1S(=O)(=O)O [Aztreonam, aztreonam, reference compound], the MIC (K. pneumo JMI 4088 [1]) was > 512 µg/mL, the MIC (K. pneumo JMI 2674 [2]) was 512 µg/mL and the MIC (E. coli JMI 10768) was 8 µg/mL. The MIC (K. pneumo JMI 2699) was 128 µg/mL, the MIC (K. pneumo JMI 2699; read-out: MIC) was > 512 µg/mL and the MIC (K. pneumo JMI 4088 [3]) was 512 µg/mL. The MIC (E. coli JMI 10767) was ≤ 1 µg/mL, the MIC (P. aerug JMI 2686 [4]) was > 512 µg/mL and the MIC (E. coli ATCC 25922) was 0.25 µg/mL. For the same compound, the MIC (E.coli JMI 4103) was > 512 µg/mL, the MIC (E. coli JMI 10770) was 64 µg/mL and the MIC (K. pneumo JMI 2693) was > 512 µg/mL. The MIC (K. pneumo JMI 2697) was > 512 µg/mL, the MIC (E. coli JMI 2692; [8]) was > 512 µg/mL and the MIC (K. pneumo JMI 2674 [5]) was 32 µg/mL. The MIC ([6]; Escherichia coli, Isolate No 13, Enzyme IMP-1) was 16, the MIC [6, 9] was ≤ 0.12 µg/mL and the MIC (E. coli JMI 11103) was 32 µg/mL. The MIC (K. pneumo JMI 4106) was 512 µg/mL, the MIC (K. pneumo JMI 4106; read-out: MIC) was > 512 µg/mL and the MIC (E. coli JMI 4080) was 64 µg/mL.
C[C@@H](O)[C@H]1C(=O)N2C(C(=O)O)=C(S[C@@H]3CN[C@H](C(=O)N(C)C)C3)[C@H](C)[C@H]12 [Meropenem, meropenem, reference compound] was tested, and the MIC (E. coli JMI 2665; JMI2665) was ≤ 1 µg/mL, the MIC (E. coli JMI 10768) was ≤ 1 µg/mL and the MIC (K. pneumo JMI 2699; read-out: MIC) was 32 µg/mL. It also gave an MIC (E. coli JMI 2671) of 64 µg/mL, an MIC (K. pneumo JMI 4088 [3]) of 512 µg/mL and an MIC (P. aerug JMI 2686 [7]) of 512 µg/mL. For the same compound, the MIC (E. coli JMI 10767) was ≤ 1 µg/mL, the MIC (K. pneumo JMI 2673) was ≤ 1 µg/mL and the MIC (K.pneumo JMI 4109) was ≤ 1 µg/mL. The MIC (E. coli ATCC 25922) was 0.06 µg/mL, the MIC (E.coli JMI 4103) was 64 µg/mL and the MIC (E. cloacae JMI 36; E. cloacae JMI 36 (P99), substance alone, read-out: MIC) was ≤ 1 µg/mL. For the same compound, the MIC (E. coli JMI 10770) was ≤ 1 µg/mL, the MIC (K. pneumo JMI 2693) was 8 µg/mL and the MIC (K. pneumo JMI 2697) was 64 µg/mL. For the same compound, the MIC (E. coli JMI 2692) was 256 µg/mL, the MIC (K. pneumo JMI 2674 [5]) was ≤ 1 µg/mL and the MIC [6, 10] was 16 µg/mL. For the same compound, the MIC [6, 11] was 64 µg/mL, the MIC [6, 12] was 8 µg/mL and the MIC [6, 13] was 2 µg/mL. The MIC [6, 14] was 16 µg/mL, the MIC [6, 15] was 16 µg/mL and the MIC [6, 16] was 2 µg/mL. It also gave an MIC [6, 17] of 2 µg/mL, an MIC [6, 18] of 8 µg/mL and an MIC [6, 19] of 32 µg/mL. It also gave an MIC [6, 20] of 32 µg/mL, an MIC [6, 21] of 8 µg/mL and an MIC [6, 22] of 64 µg/mL. The MIC [6, 23] was 32 µg/mL, the MIC [6, 24] was 2 µg/mL and the MIC [6, 25] was 8 µg/mL. The MIC [6, 26] was 32 µg/mL, the MIC [6, 27] was 1 µg/mL and the MIC [6, 9] was 8 µg/mL. The MIC [6, 28] was 8 µg/mL, the MIC (E. coli JMI 11103) was ≤ 1 µg/mL and the MIC (A. baumanii JMI 2659; A. baumanii JMI 2659 (Ges-14 (Cpase)), substance alone, read-out: MIC) was 64 µg/mL. For the same compound, the MIC (K. pneumo JMI 2681; K. pneumo JMI 2681 (Oxa-48 (Cpase)), substance alone, read-out: MIC) was 64 µg/mL, the MIC (P. aerug JMI 149; P. aerug JMI 149 (Bla+++D+), substance alone, read-out: MIC) was 4 µg/mL and the MIC (E. coli JMI 4080) was ≤ 1 µg/mL.
In the case of CC(C)(O/N=C(\C(=O)N[C@@H]1C(=O)N2C(C(=O)[O-])=C(C[n+]3ccccc3)CS[C@H]12)c1csc(N)n1)C(=O)O [Ceftazidime, ceftazidime, reference compound], the MIC (K. pneumo JMI 4088 [1]) is reported as > 512 µg/mL, the MIC (K. pneumo JMI 2674 [2]) is reported as 512 µg/mL and the MIC (E. coli JMI 2665; JMI2665, E. coli JMI 2665 (CMY-2 (Plasmid Cpase)), substance alone, read-out: MIC) is reported as 8 µg/mL. For the same compound, the MIC (E. coli JMI 10768) was 8 µg/mL, the MIC (K. pneumo JMI 2699; read-out: MIC) was > 512 µg/mL and the MIC (E. coli JMI 2671) was 64 µg/mL. The MIC (P. aerug JMI 2686 [7]) was 512 µg/mL, the MIC (E. coli JMI 10767) was ≤ 1 µg/mL and the MIC (K. pneumo JMI 2673) was 32 µg/mL. The MIC (K.pneumo JMI 4109) was 8 µg/mL, the MIC (E. coli ATCC 25922) was 0.25 µg/mL and the MIC (E.coli JMI 4103) was > 512 µg/mL. The MIC (E. cloacae JMI 36) was 128 µg/mL, the MIC (E. coli JMI 10770) was 64 µg/mL and the MIC (K. pneumo JMI 2693) was > 512 µg/mL. For the same compound, the MIC (K. pneumo JMI 2697) was > 512 µg/mL, the MIC (E. coli JMI 2692; [8]) was > 512 µg/mL and the MIC [6, 10] was > 256 µg/mL. The MIC [6, 11] was > 256 µg/mL, the MIC [6, 12] was 256 µg/mL and the MIC [6, 13] was 256 µg/mL. The MIC [6, 14] was > 256 µg/mL, the MIC [6, 15] was > 256 µg/mL and the MIC [6, 16] was 128 µg/mL. The MIC ([6]; Enterobacter cloacae, Isolate No 1280, Enzyme VIM-5, unit assumed) was 64 µg/mL, the MIC [6, 17] was > 256 µg/mL and the MIC ([6]; Enterobacter cloacae, Isolate No 1874, Enzyme IMP-21, unit assumed) was 32 µg/mL. The MIC [6, 18] was > 256 µg/mL, the MIC [6, 19] was > 256 µg/mL and the MIC ([6]; Escherichia coli, Isolate No 13, Enzyme IMP-1, unit assumed) was 256 µg/mL. The MIC [6, 20] was > 256 µg/mL, the MIC [6, 21] was > 256 µg/mL and the MIC [6, 22] was > 256 µg/mL. The MIC [6, 23] was > 256 µg/mL, the MIC [6, 24] was 128 µg/mL and the MIC [6, 25] was > 256 µg/mL. The MIC [6, 26] was > 256 µg/mL, the MIC [6, 27] was > 256 µg/mL and the MIC [6, 9] was 64 µg/mL. For the same compound, the MIC [6, 28] was 128 µg/mL, the MIC (E. coli JMI 11103) was 32 µg/mL and the MIC (K. pneumo JMI 4106; read-out: MIC) was > 512 µg/mL. The MIC (A. baumanii JMI 2659) was 512 µg/mL, the MIC (K. pneumo JMI 2681) was 512 µg/mL and the MIC (P. aerug JMI 149) was 256 µg/mL. The MIC (E. coli JMI 4080) was 64 µg/mL.
